We go through three compounds from ChEMBL document CHEMBL1629682, “Nitazoxanide inhibits biofilm formation by Staphylococcus epidermidis by blocking accumulation on surfaces” (Antimicrob Agents Chemother, 2010).

Converted amounts (≈) assume the structure as drawn. The source made the active and inactive calls. The calls are words filed in the database; no cut-off is given here.

The nature of data set [1]: Aqueous solubility of the compound. Type of data set: physicochemical.
Data set [2] deals with Staphylococcus epidermidis. The experiment in a line: Antimicrobial activity against Staphylococcus epidermidis 9142 expressing surface protein Aap assessed as inhibition of biofilm formation at 12.5 ug/ml by spectrophotometry in presence of magnesium ions. Type of data set: functional, organism-based.
In data set [3] the test system is Staphylococcus epidermidis. Briefly: Antimicrobial activity against biofilm-positive Staphylococcus epidermidis clinical isolate ICS2 by microdilution method. Type of data set: functional, organism-based. A general note: Dilution methods test growth across graded concentrations, often in twofold steps.
The test system of data set [4] is Staphylococcus epidermidis. The experiment in a line: Antimicrobial activity against Staphylococcus epidermidis 9142 assessed as growth inhibition at 16 ug/ml by microdilution method. Type of data set: functional, organism-based.
For data set [5], the system named is Staphylococcus haemolyticus. Briefly: Antimicrobial activity against Staphylococcus haemolyticus S33208 assessed as growth inhibition at 16 ug/ml by microdilution method. Type of data set: functional, organism-based.
The subject of data set [6] is Staphylococcus epidermidis. The experiment in a line: Antimicrobial activity against Staphylococcus epidermidis 9142 assessed as inhibition of biofilm formation after 24 hrs by crystal violet staining. Type of data set: functional, organism-based.
Data set [7] has as its system Staphylococcus epidermidis. Briefly: Antimicrobial activity against biofilm-positive Staphylococcus epidermidis clinical isolate ICS5 assessed as inhibition of biofilm formation after 16 hrs by crystal violet staining. In kind it is functional, organism-based.
In data set [8] the test system is Staphylococcus epidermidis. Briefly: Antimicrobial activity against Staphylococcus epidermidis CAV1005 assessed as inhibition of biofilm formation after 24 hrs by microdilution method. Conditions: CAV1005, 24 h. Type of data set: functional.
Data set [9] concerns Staphylococcus epidermidis. The experiment in a line: Antimicrobial activity against Staphylococcus epidermidis 9142 assessed as growth inhibition at 8 ug/ml by microdilution method. In kind it is functional, organism-based.
Data set [10] concerns Staphylococcus epidermidis. The experiment in a line: Antimicrobial activity against Staphylococcus epidermidis 9142 assessed as inhibition of bacterial attachment to plastics at 15 ug/ml under static condition for 3 hrs by microscopic analysis. Type of data set: functional, organism-based.
The test system of data set [11] is Staphylococcus epidermidis. Briefly: Antimicrobial activity against Staphylococcus epidermidis 9142 assessed as inhibition of bacterial attachment to plastics at 10 ug/ml under static condition for 3 hrs by microscopic analysis. Type of data set: functional, organism-based.
Data set [12] relates to Staphylococcus epidermidis. The experiment in a line: Antimicrobial activity against Staphylococcus epidermidis 9142 at 25 ug/ml under aerobic condition by microdilution method. In kind it is functional, organism-based.
For data set [13], the system named is Staphylococcus epidermidis. The experiment in a line: Antimicrobial activity against Staphylococcus epidermidis 9142 expressing surface protein Aap up to 10 hrs by microdilution method in presence of 10 uM Zn ions. In kind it is functional, organism-based.
Data set [14] relates to Staphylococcus epidermidis. The experiment in a line: Antimicrobial activity against Staphylococcus epidermidis 9142 under aerobic condition by microdilution method. In kind it is functional, organism-based.
Data set [15] relates to Staphylococcus epidermidis. Briefly: Antimicrobial activity against biofilm-positive Staphylococcus epidermidis clinical isolate ICS4 by microdilution method. In kind it is functional, organism-based.
Data set [16] has as its system Staphylococcus epidermidis. Briefly: Antimicrobial activity against biofilm-positive Staphylococcus epidermidis clinical isolate ICS1 by microdilution method. In kind it is functional, organism-based.
Data set [17] concerns Staphylococcus epidermidis. The experiment in a line: Antimicrobial activity against biofilm-positive Staphylococcus epidermidis clinical isolate ICS2 assessed as inhibition of biofilm formation after 16 hrs by crystal violet staining. Type of data set: functional, organism-based.
For data set [18], the system named is Staphylococcus epidermidis. The experiment in a line: Antimicrobial activity against biofilm-positive Staphylococcus epidermidis clinical isolate ICS4 assessed as inhibition of biofilm formation after 16 hrs by crystal violet staining. Type of data set: functional, organism-based.
For data set [19], the system named is Staphylococcus epidermidis. The experiment in a line: Antimicrobial activity against Staphylococcus epidermidis 5179 under microaeration condition at 10 ug/ml by microdilution method. In kind it is functional, organism-based.
Data set [20] has as its system Staphylococcus epidermidis. Briefly: Antimicrobial activity against Staphylococcus epidermidis 9142 assessed as inhibition of bacterial accumulation on catheters after 24 hrs by catheter adherence model. Type of data set: functional, organism-based.
Data set [21] concerns Staphylococcus epidermidis. Briefly: Antimicrobial activity against Staphylococcus epidermidis 5179 by microdilution method. In kind it is functional.
The test system of data set [22] is Staphylococcus epidermidis. Briefly: Antimicrobial activity against Staphylococcus epidermidis CAV1005 at 25 ug/ml under aerobic condition by microdilution method. In kind it is functional, organism-based.
In a further data set the test system is Staphylococcus hominis. The experiment in a line: Antimicrobial activity against Staphylococcus hominis F13532 assessed as inhibition of biofilm formation after 24 hrs by microdilution method. Type of data set: functional. Conditions: F13532, 24 h.
In data set [23] the test system is Staphylococcus epidermidis. Briefly: Antimicrobial activity against biofilm-positive Staphylococcus epidermidis clinical isolate ICS5 by microdilution method. In kind it is functional, organism-based.
The test system of data set [24] is Staphylococcus epidermidis. Briefly: Antimicrobial activity against Staphylococcus epidermidis 9142 expressing surface protein Aap assessed as inhibition of bacterial growth at 12.5 ug/ml after 16 hrs by spectrophotometry in presence of 10 uM Zn ions. Type of data set: functional, organism-based.
In data set [25] the test system is Staphylococcus epidermidis. Briefly: Antimicrobial activity against Staphylococcus epidermidis 9142 assessed as inhibition of bacterial attachment to plastics at 15 ug/ml under static condition for 3 hrs by microscopic analysis in presence of 10 uM Zn ions. In kind it is functional, organism-based.
Data set [26] has as its system Staphylococcus epidermidis. The experiment in a line: Antimicrobial activity against biofilm-positive Staphylococcus epidermidis clinical isolate ICS3 assessed as inhibition of biofilm formation after 16 hrs by crystal violet staining. Type of data set: functional, organism-based.
Data set [27] deals with Staphylococcus epidermidis. Briefly: Antimicrobial activity against Staphylococcus epidermidis 9142 expressing surface protein Aap assessed as inhibition of biofilm formation at 12.5 ug/ml by spectrophotometry in presence of calcium ions. In kind it is functional, organism-based.
Data set [28] relates to Staphylococcus epidermidis. The experiment in a line: Antimicrobial activity against Staphylococcus epidermidis CAV1005 under microaeration condition at 10 ug/ml by microdilution method. In kind it is functional, organism-based.
Data set [29] relates to Staphylococcus haemolyticus. Briefly: Antimicrobial activity against Staphylococcus haemolyticus S33208 assessed as growth inhibition at 8 ug/ml by microdilution method. Type of data set: functional, organism-based.
For data set [30], the system named is Staphylococcus epidermidis. Briefly: Antimicrobial activity against biofilm-positive Staphylococcus epidermidis clinical isolate ICS3 by microdilution method. Type of data set: functional, organism-based.
The subject of data set [31] is Staphylococcus epidermidis. Briefly: Antimicrobial activity against Staphylococcus epidermidis 9142 assessed as inhibition of bacterial primary attachment to plastics at 15 ug/ml under shaking condition for 3 hrs by microscopic analysis. Type of data set: functional, organism-based.
Data set [32] has as its system Staphylococcus epidermidis. The experiment in a line: Antimicrobial activity against Staphylococcus epidermidis 5179 under aerobic condition by microdilution method. Type of data set: functional, organism-based.
Data set [33] has as its system Staphylococcus haemolyticus. Briefly: Antimicrobial activity against Staphylococcus haemolyticus S33208 assessed as inhibition of biofilm formation after 24 hrs by crystal violet staining. In kind it is functional, organism-based.
The subject of data set [34] is Staphylococcus epidermidis. The experiment in a line: Antimicrobial activity against Staphylococcus epidermidis clinical isolate 5179-R1 derived from PNAG negative, icaA::IS257 mutant 5179 strain produces a proteinaceous biofilm dependent on a truncated 140-kDa isoform of Aap by microdilution method. In kind it is functional, organism-based.
Data set [35] concerns Staphylococcus epidermidis. Briefly: Antimicrobial activity against Staphylococcus epidermidis 9142 at 1 to 5 ug/ml by microplate assay. In kind it is functional, organism-based.
In data set [36] the test system is Staphylococcus epidermidis. The experiment in a line: Antimicrobial activity against Staphylococcus epidermidis 9142 expressing surface protein Aap assessed as inhibition of biofilm formation at 12.5 ug/ml by spectrophotometry in presence of Zn ions. Type of data set: functional, organism-based.
Data set [37] has as its system Staphylococcus epidermidis. Briefly: Antimicrobial activity against Staphylococcus epidermidis 9142 by microdilution method. In kind it is functional.
Data set [38] concerns Staphylococcus epidermidis. Briefly: Antimicrobial activity against Staphylococcus epidermidis 9142 assessed as inhibition of bacterial accumulation on catheters treated for 12 hrs post biofilm formation measured after 24 hrs by crystal voilet staining. Type of data set: functional, organism-based.
In data set [39] the test system is Staphylococcus epidermidis. Briefly: Antimicrobial activity against Staphylococcus epidermidis 9142 assessed as inhibition of bacterial primary attachment to plastics during 3 hrs at 15 ug/ml by microscopic analysis. Type of data set: functional, organism-based.
For data set [40], the system named is Staphylococcus epidermidis. The experiment in a line: Antimicrobial activity against Staphylococcus epidermidis CAV1005 by microdilution method. Type of data set: functional.
For data set [41], the system named is Staphylococcus epidermidis. Briefly: Antimicrobial activity against Staphylococcus epidermidis 9142 expressing surface protein Aap assessed as inhibition of bacterial growth at 12.5 ug/ml by spectrophotometry in presence of 10 uM Zn ions. Type of data set: functional, organism-based.
The test system of data set [42] is Staphylococcus epidermidis. Briefly: Antimicrobial activity against Staphylococcus epidermidis clinical isolate 5179-R1 derived from PNAG negative, icaA::IS257 mutant 5179 strain produces a proteinaceous biofilm dependent on a truncated 140-kDa isoform of Aap assessed as inhibition of biofilm formation after 16 hrs by crystal violet staining. Type of data set: functional, organism-based.

Data set [43] deals with Staphylococcus epidermidis. Briefly: Antimicrobial activity against Staphylococcus epidermidis 9142 expressing surface protein Aap by microdilution method in presence of 10 uM Zn ions. In kind it is functional.
Data set [44] relates to Staphylococcus epidermidis. The experiment in a line: Antimicrobial activity against Staphylococcus epidermidis 5179 at 25 ug/ml under aerobic condition by microdilution method. Type of data set: functional, organism-based.
Data set [45] relates to Staphylococcus epidermidis. The experiment in a line: Antimicrobial activity against Staphylococcus epidermidis 9142 expressing surface protein Aap assessed as inhibition of biofilm formation at 12.5 ug/ml by spectrophotometry in presence of EDTA. Type of data set: functional, organism-based.
In data set [46] the test system is Staphylococcus epidermidis. The experiment in a line: Antimicrobial activity against Staphylococcus epidermidis 9142 under microaeration condition at 10 ug/ml by microdilution method. Type of data set: functional, organism-based.
The test system of data set [47] is Staphylococcus epidermidis. The experiment in a line: Antimicrobial activity against biofilm-positive Staphylococcus epidermidis clinical isolate ICS1 assessed as inhibition of biofilm formation after 16 hrs by crystal violet staining. Type of data set: functional, organism-based.
In data set [48] the test system is Staphylococcus epidermidis. Briefly: Antimicrobial activity against Staphylococcus epidermidis 9142 at 25 ug/ml by microdilution method. Type of data set: functional, organism-based.
Data set [49] relates to Staphylococcus epidermidis. Briefly: Antimicrobial activity against Staphylococcus epidermidis CAV1005 under aerobic condition by microdilution method. In kind it is functional, organism-based.
A short description of data set [50]: Plasma protein binding in healthy volunteers at […], po administered as single dose. Type of data set: ADME, organism-based. Also noted: route oral. The settings on record: human, read-out: PPB (converted).

`Cl.NCCOc1ccccc1C(=O)Nc1ncc([N+](=O)[O-])s1`: the concentration in solution in [1] (solubility) came to 400 µg/mL.

Regarding `CC(=O)Oc1ccccc1C(=O)Nc1ncc([N+](=O)[O-])s1` [NITAZOXANIDE], the result in [2], in data set [4], in [5], in [9], in data set [10] and in data set [11] was Active. In addition, the result in data set [12], in data set [13], in data set [19], in [22], in data set [25] and in [27] was Active. In addition, the outcome in [28], in data set [29], in [31], in [35], in [39] and in data set [41] was Active. In addition, the result in [44], in [46] and in data set [48] was Active. Further, the IC50 in data set [3], in [15], in data set [16], in [23], in data set [30] and in data set [34] was 1 µg/mL (≈ 3.25 µM) each time. Besides, the MIC in [3] is 16 µg/mL (≈ 52.1 µM); in [8], above 32 µg/mL; in data set [15], 16 µg/mL (≈ 52.1 µM); in [16] it was 16 µg/mL (≈ 52.1 µM); in data set [21], 8 µg/mL (≈ 26 µM); in the data set with Staphylococcus hominis, above 32 µg/mL. Besides, the MIC in data set [23] was found to be 16 µg/mL (≈ 52.1 µM); in [30], 16 µg/mL (≈ 52.1 µM); in data set [34], 16 µg/mL (≈ 52.1 µM); in [37] it was 8 µg/mL (≈ 26 µM); in data set [40], 8 µg/mL (≈ 26 µM); in data set [43] it was 16 µg/mL. Further, the Activity entry in data set [6], in [14], in data set [20], in data set [32], in data set [33] and in [49] was “Dose-dependent effect” in each case. Besides, the inhibition entry in [7], in data set [17], in [18], in data set [26], in data set [42] and in data set [47] was “Active” each time. Further, the result in [24], in data set [36], in data set [38] and in data set [45] was inactive.

Turning to `O=C(Nc1ncc([N+](=O)[O-])s1)c1ccccc1O` [TIZOXANIDE], the outcome in data set [12], in data set [22], in [35] and in [44] was Active. Also, the Activity result in data set [14], in [32] and in data set [49] was “Dose-dependent effect” each time. In addition, the MIC in data set [21], in data set [37] and in data set [40] was 8 µg/mL (≈ 30.2 µM) each time. The fraction unbound in [50] is 0.025.
